# Source: US20040019088A1, “Use of Epothilones in the treatment of brain diseases associated with proliferative processes” (Schering AG, priority 2002, published 2004)
# Several values for one entry are separate records, joined by “and”; a condition that tells them apart may be missing. Equal values may be shown once. Marks after values point to notes of the source that are not given here.
# Tests used:
# [1] = Mouse bolus injection assay (blood and brain levels of Epothilones); conditions: for Brain plasma ratio: after 20 min, iv application; for concentration at 10 min / concentration at 20 min / concentration at 40 min / AUC(0-t) / Kp: male, SCID, mouse, in vivo, 5 mg/kg; for AUC(0-t) / Kp: iv
# Method: Mouse Bolus Injection Assay
# (In Vivo Assay for the Evaluation of Blood and Brain Levels of Epothilones)
# Male SCID mice (20-25 g, non-leaky) were treated with a single dose of tritium-labeled Epothilones and paclitaxel (5 mg/kg; 7.4 MBq/mg; in 30% Hydroxypropyl-β-cyclodextrin (HPβCD)/NaCl iv bolus injection). Partitioning of radioactivity between blood and brain was measured by liquid scintillation counting (LSC) and HPLC-radioflow at three time points (10, 20 and 40 min) after injection.
# Human U373 glioma cells = test: In vivo efficacy against xenografted (s.c.) and intracerebral human glioma; conditions: for i. cer. Brain Tumor Volume d 32: i.cer. U373 in NMRI nu/nu-mice; for RTV s.c. Tumors d 25 (Relative Tumor Volume): s.c. U373 in NMRI nu/nu-mice
# Method: In vivo assay for the evaluation of efficacy of Epothilones against xenografted and intracerebral human glioma.
# (§1) Female NMRI nu/nu-mice (20-28 g) were used for this experiment. Human U373 glioma cells were implanted s.c. (1×10^7/mouse) as well as i.cer. (2×10^5/mouse) on day 0. Treatment was started on day 7 when the s.c. tumors were approximately 0,05 cm^3 in size. […] After termination of the experiment, the size of the brain tumors was determined (Table 2).
# [2] = Tolerability (deaths, body weight change) in the U373 glioma study; type: in vivo, NMRI nu/nu-mice; conditions: for BWC d 7-17 (Body Weight Change) / Deaths/total (d): NMRI nu/nu-mice
# Method: as §1
# [3] = in vivo; cited from earlier work
# [4] = 5 mg/kg iv bolus, 3H-labeled, male SCID mice
# [5] = 10 min after 5 mg/kg iv bolus, 3H-labeled, male SCID mice
# [6] = 20 min after 5 mg/kg iv bolus, 3H-labeled, male SCID mice
# [7] = 40 min after 5 mg/kg iv bolus, 3H-labeled, male SCID mice
# [8] = Group B: 9 mg/kg i.v., days 7, 14
# [9] = Group C: 2 mg/kg i.v., days 7, 9, 11, 14, 16, 18
# [10] = both schedules (groups B and C) vs. untreated control
Compound,"Brain AUC (0-40 min) [1, 4]",Brain plasma ratio [1],concentration at 10 min [1],concentration at 20 min [1],concentration at 40 min [1],AUC(0-t) [1],Kp [1],"Brain conc. mean [1, 5]","Brain conc. mean [1, 6]","Brain conc. mean [1, 7]",further results
"CCCC1C(=O)C(C)(C)C(O)CC(=O)OC(C(C)=Cc2csc(C)n2)CC=C(C)CCCC(C)C1O (stereo not drawn) [Compound 1, 4,8-dihydroxy-16-(1-methyl-2-(2-methyl-4-thiazolyl)-ethenyl)-1-oxa-7-(1-propyl)-5,5,9,13-tetramethyl-cyclohexadec-13-ene-2,6-dione]",21 µg·min/mL,higher brain plasma ratio,800 ng/mL and 300 ng/g,600 ng/mL and 800 ng/g,300 ng/mL and 600 ng/g,333 ng·h/mL,1,–,–,–,–
CCCC1C(=O)C(C)(C)C(O)CC(=O)OC(C(C)=Cc2csc(C)n2)CC2OC2(C)CCCC(C)C1O (stereo not drawn) [Compound 2],35 µg·min/mL,higher brain plasma ratio,–,–,–,–,–,1.1 µg/g,1.1 µg/g,0.8 µg/g,"Plasma AUC (0-40 min) [1, 4]: 31 µg·min/mL; Plasma conc. mean [1, 5]: 1600 ng/mL; Plasma conc. mean [1, 6]: 700 ng/mL; Plasma conc. mean [1, 7]: 300 ng/mL; AUC Ratio Brain/Plasma ([1]; partial AUC 0-40 min, 5 mg/kg iv bolus, male SCID mice): 1.2"
"C=CCC1C(=O)C(C)(C)C(O)CC(=O)OC(c2ccc3sc(C)nc3c2)CC2OC2(C)CCCC(C)C1O (stereo not drawn) [Compound 3, 7,11-dihydroxy-3-(2-methylbenzothiazol-5-yl)-10-(prop-2-en-1-yl)-8,8,12,16-tetramethyl-4,17-dioxabicyclo[14.1.0]heptadecane-5,9-dione]",20 µg·min/mL,–,1200 ng/mL and 900 ng/g,700 ng/mL and 300 ng/g,300 ng/mL and 600 ng/g,417 ng·h/mL,0.8,–,–,–,"i. cer. Brain Tumor Volume d 32 (Human U373 glioma cells; [8]): 0.002* mm^3; RTV s.c. Tumors d 25 (Relative Tumor Volume) (Human U373 glioma cells; [8]): 1.15; i. cer. Brain Tumor Volume d 32 (Human U373 glioma cells; [9]): 0.96 mm^3; RTV s.c. Tumors d 25 (Relative Tumor Volume) (Human U373 glioma cells; [9]): 1.40; Therapeutic effect on i.cer. U373 brain tumors (Human U373 glioma cells; [10]): significant therapeutic effect; Therapeutic effect on s.c. U373 tumors (Human U373 glioma cells; [10]): significant therapeutic effect; BWC d 7-17 (Body Weight Change) [2, 8]: −7%; Deaths/total (d) [2, 8]: 0/10; BWC d 7-17 (Body Weight Change) [2, 9]: −3%; Deaths/total (d) [2, 9]: 1/10; Body weight loss ([2]; treatment groups B and C): Only a moderate body weight loss (not significant)"
"CC(=O)O[C@H]1C(=O)[C@@]2(C)[C@H]([C@H](OC(=O)c3ccccc3)[C@]3(O)C[C@H](OC(=O)[C@H](O)[C@@H](NC(=O)c4ccccc4)c4ccccc4)C(C)=C1C3(C)C)[C@]1(OC(C)=O)CO[C@@H]1C[C@@H]2O [Paclitaxel, reference compound]",0 µg·min/mL,–,800 ng/mL,600 ng/mL,200 ng/mL,317 ng·h/mL,–,<LOQ,<LOQ,<LOQ,"Detection in the brain ([1]; 40 minutes after application): detected in the brain in considerable amounts; Concentration in brain samples ([1]; all brain samples (10, 20, 40 min)): below the limit of quantitation; Ability to penetrate the BBB [3]: only low ability to penetrate the BBB"
